In paper PMC8071248, “Characterization of Dog Glutathione Transferase P1-1, an Enzyme Relevant to Veterinary Medicine” (International Journal of Molecular Sciences, 2021):

Assays:
dog GST P1-1 [1] = biological target: T1, dog GST P1-1 (Canis lupus familiaris, UniProt A0A8I3QRM6); assay type: biochemical; details: compound as substrate with GSH; 30 °C; substrate-specific concentrations and pH
Procedure: The purified dog GST P1-1 enzyme was assayed spectrophotometrically with various substrates representing different types of chemical reactions, including substitution, reduction, addition, and isomerization.
Activity measurements with alternative substrates were performed spectrophotometrically on a Shimadzu (UV-250 1 PC) instrument. All measurements were conducted at 30 °C and in a 1 mL quartz cuvette, except for the alkenals, which were measured in a 0.5 mL quartz cuvette with a 5 mm light path. The conditions used with the final concentrations in the cuvette were as follows. CDNB: (Δε340 nm = 9600 cm^−1 M^−1), 1 mM GSH, 1 mM CDNB (dissolved in ethanol), measured at pH 6.5 in buffer A (0.1 M NaH2PO4/Na2HPO4 with 1 mM EDTA); CuOOH: (Δε340 nm = −6200 cm^−1 M^−1), 1 mM GSH, 1.5 mM CuOOH (dissolved in acetonitrile), 0.1 mM NADPH, 0.3 units glutathione reductase, measured at pH 7.0 in buffer A; Alkenals: (Δε225 nm = −19,200 cm^−1 M^−1), 0.5 mM GSH, 0.1 mM alkenals (dissolved in acetonitrile), measured at pH 6.5 in buffer A; EA: (Δε270 nm = 5000 cm^−1 M^−1), 0.25 mM GSH, 0.2 mM EA (dissolved in acetonitrile), measured at pH 6.5 in buffer A; AD: (Δε248 nm = 16,300 cm^−1 M^−1), 1 mM GSH, 0.1 mM AD (dissolved in methanol), measured at pH 8.0 in 0.025 M NaH2PO4/Na2HPO4 with 1 mM EDTA; PEITC: (Δε274 nm = 8890 cm^−1 M^−1), BITC: (Δε274 nm = 9250 cm^−1 M^−1), AITC: (Δε274 nm = 7450 cm^−1 M^−1), PITC: (Δε274 nm = 8350 cm^−1 M^−1), cHITC (Δε274 nm = 8520 cm^−1 M^−1), 1 mM GSH, 0.4 mM ITC (dissolved in acetonitrile), measured at pH 6.5 in buffer A.

Human GST P1-1/Ile105 = tested on: Human GST P1-1/Ile105; parameters: method as in PMID 9600848; details: compound as substrate; cited from earlier work
Cys48 = Cys48 (UniProt position 48, SLKASCLYGQL); details: cited from earlier work
dog GST P1-1 [2] = biological target: T1, dog GST P1-1; assay: Activation of the prodrug Telcyta by GST P1-1, TLC assay with ninhydrin staining; assay type: biochemical; details: 3 mM Telcyta, 0.25 mg/mL enzyme, pH 7.5, 37 °C, nonenzymatic background subtracted
Procedure: The prodrug Telcyta is a substrate for GSTs in a reaction releasing a multifunctional phosphorodiamidate mustard (Figure 5). The prodrug was most effectively activated by human GST P1-1 from the enzymes examined. Telcyta was tested with the dog GST P1-1 for comparison. We developed a chromatographic method to assay the reaction. Aliquots of the reaction mixture were analyzed by thin-layer chromatography (TLC), and the ninhydrin-reactive product as well as the substrate were quantified at different time points (Figure 6). Conditions were chosen to ascertain a linear response of ninhydrin staining with increasing analyte concentration. The enzymatic activity was obtained by subtracting the nonenzymatic background reaction.
Telcyta is a tripeptide derivative, which releases an alkylating agent by the action of GSTs and is converted to another tripeptide. Both substrate and product peptides are reactive with ninhydrin and the reaction can be monitored by sampling of the reaction mixture at consecutive time points. […] A background reaction was also measured in the absence of enzyme. […]
Six TLC plates (silica coated), one for each time point, were prepared and sampling occurred immediately after addition of Telcyta and every 3.5 min thereafter. The reaction was monitored over a total of 17.5 min. […]
Catalytic activity was estimated both by visual observation and by quantitative ImageJ analysis. […]

dog GST P1-1 [3] = biological target: T1, dog GST P1-1; assay: biochemical; assay type: biochemical; details: for IC50: 1 mM GSH and 0.4 mM benzyl isothiocyanate as substrates, standard assay conditions

T1 sequence (A0A8I3QRM6 1-210): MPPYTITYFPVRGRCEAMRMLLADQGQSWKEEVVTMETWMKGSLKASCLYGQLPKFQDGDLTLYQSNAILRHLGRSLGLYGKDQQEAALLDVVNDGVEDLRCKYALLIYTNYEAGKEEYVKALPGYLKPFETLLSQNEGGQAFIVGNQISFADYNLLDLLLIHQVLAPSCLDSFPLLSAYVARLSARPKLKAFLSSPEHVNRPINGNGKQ

| Compound | Specific Activity, Dog GST P1-1 (dog GST P1-1 [1]) [µmol/min/mg] | Specific Activity, Human GST P1-1/Ile105 (Human GST P1-1/Ile105) [µmol/min/mg] | also measured |
| --- | --- | --- | --- |
| O=[N+]([O-])c1ccc(Cl)c([N+](=O)[O-])c1 [1-Chloro-2,4-dinitrobenzene] | 23.0 ± 1.3 | 106 | – |
| Glutathione transferase P1-1 (GST P1-1, class Pi) (Homo sapiens) | – | – | pKa (Cys48): 4.2 |
| CCCCCC/C=C/C=O [trans-2-Nonenal] | 0.124 ± 0.005 | – | – |
| S=C=NCCc1ccccc1 [Phenethyl isothiocyanate] | 6.37 ± 1.03 | 60 | – |
| CCCCCCCCC/C=C/C=O [trans-2-Dodecenal] | 0.046 ± 0.006 | – | – |
| NC(CCC(=O)NC(CS(=O)(=O)CCOP(=O)(N(CCCl)CCCl)N(CCCl)CCCl)C(=O)NC(C(=O)O)c1ccccc1)C(=O)O [Telcyta, γ-L-Glutamyl-α-amino-β-(2-ethyl-N,N,N′,N′-tetrakis(2-chloroethyl)phosphorodiamidate)sulfonylpropionyl-R(−)phenylglycine] | – | – | Fold lower activity per mg of protein of dog GST P1-1 than the human enzyme (dog GST P1-1 [2]): 18 fold |
| Nc1c(S(=O)(=O)O)cc(Nc2ccc(Nc3nc(Cl)nc(Nc4ccccc4S(=O)(=O)O)n3)c(S(=O)(=O)O)c2)c2c1C(=O)c1ccccc1C2=O [Cibacron Blue] | – | – | IC50 (dog GST P1-1 [3]): 43 ± 7 nM; Shape of inhibition curve (cooperativity) (dog GST P1-1 [3]; benzyl isothiocyanate as substrate): positive cooperativity |
| CCCN=C=S [Propyl isothiocyanate] | 2.55 ± 0.20 | 49 | – |
| C=CCN=C=S [Allyl isothiocyanate] | 1.94 ± 0.60 | 38 | – |
| C=C(CC)C(=O)c1ccc(OCC(=O)O)c(Cl)c1Cl [Ethacrynic acid] | 2.05 ± 0.13 | – | – |
| S=C=NC1CCCCC1 [Cyclohexyl isothiocyanate] | 1.27 ± 0.08 | 11 | – |
| S=C=NCc1ccccc1 [Benzyl isothiocyanate] | 39.0 ± 5.2 | 63 | – |
| CC(C)(OO)c1ccccc1 [Cumene hydroperoxide] | 0.07 ± 0.01 | 0.03 | – |
| CC/C=C/C=O [trans-2-Pentenal] | 0.100 ± 0.002 | – | – |
| CCCCCCC/C=C/C=O [trans-2-Decenal] | 0.111 ± 0.005 | – | – |
| [Cl][Sn]([c]1ccccc1)([c]1ccccc1)[c]1ccccc1 [Triphenyltin chloride] | – | – | IC50 (dog GST P1-1 [3]): 3110 ± 380 nM |
| C[C@]12CCC(=O)CC1=CC[C@@H]1[C@@H]2CC[C@]2(C)C(=O)CC[C@@H]12 [Δ^5-androstene-3,17-dione] | 0.014 ± 0.005 | 0.01 | – |
